The values that follow come from patent publication US9085555B2, “Complement pathway modulators and uses thereof” (priority 2011, dated 2015).

The assay has as its target Factor D (Homo sapiens (Human), UniProt P00746). Briefly: biochemical. The note with it: read-out: IC50. It counts as biochemical.

Chain of Factor D (P00746 26-253): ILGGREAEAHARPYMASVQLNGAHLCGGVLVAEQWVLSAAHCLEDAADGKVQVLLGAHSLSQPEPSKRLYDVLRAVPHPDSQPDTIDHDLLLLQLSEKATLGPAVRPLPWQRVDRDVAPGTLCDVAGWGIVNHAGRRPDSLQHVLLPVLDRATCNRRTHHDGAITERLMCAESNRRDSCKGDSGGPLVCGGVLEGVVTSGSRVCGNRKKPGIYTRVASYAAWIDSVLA

Turning to `NC(=O)c1nn(CC(=O)N2[C@@H]3C[C@@H]3C[C@H]2C(=O)Nc2cccc(-c3c(F)cccc3F)n2)c2cnccc12` [Example 721, 1-(2-{(1R,3S,5R)-3-[6-(2,6-Difluoro-phenyl)-pyridin-2-ylcarbamoyl]-2-aza-bicyclo[3.1.0]hex-2-yl}-2-oxo-ethyl)-1H-pyrazolo[3,4-c]pyridine-3-carboxamide], the IC50 stood at 98 nM.
For `NC(=O)c1nn(CC(=O)N2[C@@H]3C[C@@H]3C[C@H]2C(=O)Nc2cccc(-c3c(F)cccc3Cl)c2)c2cnccc12` [Example 722, 1-(2-((1R,3S,5R)-3-(2′-Chloro-6′-fluorobiphenyl-3-ylcarbamoyl)-2-azabicyclo[3.1.0]hexan-2-yl)-2-oxoethyl)-1H-pyrazolo[3,4-c] pyridine-3-carboxamide], the IC50 is 20 nM.
In the case of `Cc1cc2c(C(N)=O)nn(CC(=O)N3[C@@H]4C[C@@H]4C[C@H]3C(=O)Nc3cccc(OC(F)(F)F)c3F)c2cn1` [Example 723, 1-{2-[(1R,3S,5R)-3-(2-Fluoro-3-trifluoromethoxy-phenylcarbamoyl)-2-aza-bicyclo[3.1.0]hex-2-yl]-2-oxo-ethyl}-5-methyl-1H-pyrazolo[3,4-c]pyridine-3-carboxylic acid amide] it was 90 nM; in that of `NC(=O)c1nn(CC(=O)N2[C@@H]3C[C@@H]3C[C@H]2C(=O)Nc2cccc(OC(F)(F)F)c2F)c2cnccc12` [Example 724], 61 nM; in that of `CC(=O)c1nn(CC(=O)N2[C@@H]3C[C@@H]3C[C@H]2C(=O)Nc2cccc(OC(F)(F)F)c2F)c2cc(C(=O)O)ccc12` [Example 725], 18 nM.
In the case of `Cc1cc2c(C(N)=O)nn(CC(=O)N3[C@@H]4C[C@@H]4C[C@H]3C(=O)Nc3cccc(OC(F)(F)F)c3F)c2c[n+]1[O-]` [Example 726] it was 169 nM.
As for `NC(=O)c1nn(CC(=O)N2[C@@H]3C[C@@H]3C[C@H]2C(=O)Nc2cccc(Br)n2)c2cnccc12` [Example 728, 1-{2-[(1R,3S,5R)-3-(6-bromo-pyridin-2-ylcarbamoyl)-2-aza-bicyclo[3.1.0]hex-2-yl]-2-oxo-ethyl}-1H-pyrazolo[3,4-c] pyridine-3-carboxylic acid amide], the figure is 8 nM.
In the case of `NC(=O)c1nn(CC(=O)N2[C@@H]3C[C@@H]3C[C@H]2C(=O)Nc2cccc(OC(F)F)c2F)c2ccccc12` [Example 729, 1-{2-[(1R,3S,5R)-3-(3-Difluoromethoxy-2-fluoro-phenylcarbamoyl)-2-aza-bicyclo[3.1.0]hex-2-yl]-2-oxo-ethyl}-1H-indazole-3-carboxylic acid amide], the IC50 was 62 nM.
As for `NC(=O)c1nn(CC(=O)N2[C@@H]3C[C@@H]3C[C@H]2C(=O)Nc2cccc(OC(F)F)c2F)c2cnccc12` [Example 730, 1-{2-[(1R,3S,5R)-3-(3-Difluoromethoxy-2-fluoro-phenylcarbamoyl)-2-aza-bicyclo[3.1.0]hex-2-yl]-2-oxo-ethyl}-1H-pyrazolo[3,4-c] pyridine-3-carboxylic acid amide], the figure is 143 nM.
In the case of `NC(=O)c1nn(CC(=O)N2[C@@H]3C[C@@H]3C[C@H]2C(=O)Nc2cccc(Cl)c2F)c2ccccc12` [Example 731, 1-{2-[(1R,3S,5R)-3-(3-Chloro-2-fluoro-phenylcarbamoyl)-2-aza-bicyclo[3.1.0]hex-2-yl]-2-oxo-ethyl}-1H-indazole-3-carboxylic acid amide] it was 53 nM.
As for `NC(=O)c1nn(CC(=O)N2[C@@H]3C[C@@H]3C[C@H]2C(=O)Nc2cccc(C(F)(F)F)n2)c2cnccc12` [Example 732, 1-{2-Oxo-2-[(1R,3S,5R)-3-(6-trifluoromethyl-pyridin-2-ylcarbamoyl)-2-aza-bicyclo [3.1.0]hex-2-yl]-ethyl}-1H-pyrazolo[3,4-c]pyridine-3-carboxylic acid amide], the figure is 44 nM; as for `CC(=O)c1nn(CC(=O)N2[C@@H]3C[C@@H]3C[C@H]2C(=O)Nc2cccc(C(F)(F)F)n2)c2cnccc12` [Example 733, (1R,3S,5R)-2-[2-(3-Acetyl-pyrazolo[3,4-c]pyridin-1-yl)-acetyl]-2-aza-bicyclo[3.1.0] hexane-3-carboxylic acid (6-trifluoromethyl-pyridin-2-yl)-amide], 25 nM.
Consider `Cc1cc2c(C(N)=O)nn(CC(=O)N3[C@@H]4C[C@@H]4C[C@H]3C(=O)Nc3cccc(Br)n3)c2cn1` [Example 734, 1-{2-[(1R,3S,5R)-3-(6-Bromo-pyridin-2-ylcarbamoyl)-2-aza-bicyclo[3.1.0]hex-2-yl]-2-oxo-ethyl}-5-methyl-1H-pyrazolo [3,4-c]pyridine-3-carboxylic acid amide], for which the IC50 came to 4 nM.
In the case of `CCc1cc2c(C(N)=O)nn(CC(=O)N3[C@@H]4C[C@@H]4C[C@H]3C(=O)Nc3cccc(Br)n3)c2cn1` [Example 735, 1-{2-[(1R,3S,5R)-3-(6-Bromo-pyridin-2-ylcarbamoyl)-2-aza-bicyclo[3.1.0]hex-2-yl]-2-oxo-ethyl}-5-ethyl-1H-pyrazolo[3,4-c]pyridine-3-carboxylic acid amide] it was 3 nM.
Consider `CC(=O)c1nn(CC(=O)N2[C@@H]3C[C@@H]3C[C@H]2C(=O)Nc2cccc(Br)n2)c2cnccc12` [Example 736, (1R,3S,5R)-2-[2-(3-Acetyl-pyrazolo[3,4-c]pyridin-1-yl)-acetyl]-2-aza-bicyclo[3.1.0] hexane-3-carboxylic acid (6-bromo-pyridin-2-yl)-amide], for which the IC50 was found to be 18 nM.
In the case of `C[C@@]12C[C@@H](C(=O)Nc3cccc(OC(F)(F)F)c3F)N(C(=O)Cn3nc(C(N)=O)c4ccncc43)[C@@H]1C2` [Example 738, 1-{2-[(1R,3S,5R)-3-(2-Fluoro-3-trifluoromethoxy-phenylcarbamoyl)-5-methyl-2-aza-bicyclo[3.1.0]hex-2-yl]-2-oxo-ethyl}-1H-pyrazolo[3,4-c] pyridine-3-carboxylic acid amide] it was 93 nM; in that of `NC(=O)c1nn(CC(=O)N2C[C@H](F)C[C@H]2C(=O)Nc2cccc(Br)n2)c2ccccc12` [Example 739, 1-{2-[(2S,4R)-2-(6-Bromo-pyridin-2-ylcarbamoyl)-4-fluoro-pyrrolidin-1-yl]-2-oxo-ethyl}-1H-indazole-3-carboxylic acid amide], 23 nM.
In the case of `CC(=O)c1nn(CC(=O)N2[C@@H]3C[C@@H]3C[C@H]2C(=O)Nc2cccc(Br)n2)c2ccncc12` [Example 740, (1R,3S,5R)-2-[2-(3-Acetyl-pyrazolo[4,3-c]pyridin-1-yl)-acetyl]-2-aza-bicyclo[3.1.0] hexane-3-carboxylic acid (6-bromo-pyridin-2-yl)-amide] it was 13 nM.
On to `NC(=O)c1nn(CC(=O)N2[C@@H]3C[C@@H]3C[C@H]2C(=O)Nc2nc(Br)cs2)c2ccccc12` [Example 742, 1-{2-[(1R,3S,5R)-3-(4-Bromo-thiazol-2-ylcarbamoyl)-2-aza-bicyclo[3.1.0]hex-2-yl]-2-oxo-ethyl}-1H-indazole-3-carboxylic acid amide], for which the IC50 came to 37 nM.
`Cc1cc2c(C(N)=O)nn(CC(=O)N3[C@@H]4C[C@@H]4C[C@H]3C(=O)Nc3cccc(Br)n3)c2c(C)n1` [Example 743, 1-{2-[(1R,3S,5R)-3-(6-Bromo-pyridin-2-ylcarbamoyl)-2-aza-bicyclo[3.1.0]hex-2-yl]-2-oxo-ethyl}-5,7-dimethyl-1H-pyrazolo[3,4-c]pyridine-3-carboxylic acid amide]: the IC50 was 5 nM.
As to `C[C@@]12C[C@@H](C(=O)Nc3cccc(Br)n3)N(C(=O)Cn3nc(C(N)=O)c4ccccc43)[C@@H]1C2` [Example 744, 1-{2-[(1R,3S,5R)-3-(6-Bromo-pyridin-2-ylcarbamoyl)-5-methyl-2-aza-bicyclo[3.1.0]hex-2-yl]-2-oxo-ethyl}-1H-indazole-3-carboxylic acid amide], the IC50 was determined as 4 nM.
As for `Cc1cc2c(C(N)=O)nn(CC(=O)N3[C@H](C(=O)Nc4cccc(Br)n4)C[C@@]4(C)C[C@@H]34)c2cn1` [Example 745, 1-{2-[(1R,3S,5R)-3-(6-Bromo-pyridin-2-ylcarbamoyl)-5-methyl-2-aza-bicyclo[3.1.0]hex-2-yl]-2-oxo-ethyl}-5-methyl-1H-pyrazolo[3,4-c]pyridine-3-carboxylic acid amide], the figure is 5 nM; as for `NC(=O)c1nn(CC(=O)N2C[C@H]3C[C@H]3[C@H]2C(=O)Nc2cccc(Br)n2)c2ccccc12` [Example 746, 1-{2-[(1R,2S,5S)-2-(6-Bromo-pyridin-2-ylcarbamoyl)-3-aza-bicyclo[3.1.0]hex-3-yl]-2-oxo-ethyl}-1H-indazole-3-carboxylic acid amide], 7 nM; as for `Cc1nccc2c(C(N)=O)nn(CC(=O)N3[C@@H]4C[C@@H]4C[C@H]3C(=O)Nc3cccc(Br)n3)c12` [Example 747, 1-{2-[(1R,3S,5R)-3-(6-Bromo-pyridin-2-ylcarbamoyl)-2-aza-bicyclo[3.1.0]hex-2-yl]-2-oxo-ethyl}-7-methyl-1H-pyrazolo [3,4-c]pyridine-3-carboxylic acid amide], 13 nM.
In the case of `CC(=O)c1nn(CC(=O)N2[C@@H]3C[C@@H]3C[C@H]2C(=O)Nc2cccc(Br)n2)c2ccc(OCc3ncccn3)cc12` [Example 748, (1R,3S,5R)-2-{2-[3-Acetyl-5-(pyrimidin-2-ylmethoxy)-indazol-1-yl]-acetyl}-2-aza-bicyclo[3.1.0]hexane-3-carboxylic acid (6-bromo-pyridin-2-yl)-amide] it was 4 nM.
As for `NC(=O)c1nn(CC(=O)N2[C@@H]3C[C@@H]3C[C@H]2C(=O)Nc2cccc(Br)n2)c2cc(Cl)ccc12` [Example 749, 1-{2-[(1R,3S,5R)-3-(6-Bromo-pyridin-2-ylcarbamoyl)-2-aza-bicyclo[3.1.0]hex-2-yl]-2-oxo-ethyl}-6-chloro-1H-indazole-3-carboxylic acid amide], the figure is 4 nM.
As for `CC(=O)c1cn(CC(=O)N2[C@@H]3C[C@@H]3C[C@H]2C(=O)Nc2cccc(Br)n2)c2ncccc12` [Example 750, (1R,3S,5R)-2-[2-(3-Acetyl-pyrrolo[2,3-b]pyridin-1-yl)-acetyl]-2-aza-bicyclo[3.1.0] hexane-3-carboxylic acid (6-bromo-pyridin-2-yl)-amide], the IC50 is 34 nM.
